This data set relates to Hepatotoxicity. Put plainly: Human drug-induced liver injury (DILI) modelling dataset from Ekins et al.

This passage reports Hepatotoxicity results from ChEMBL document CHEMBL1697723, “A predictive ligand-based Bayesian model for human drug-induced liver injury” (Drug Metab Dispos, 2010).

Consider `NC[C@@H]1O[C@H](O[C@H]2[C@@H](O)[C@H](O[C@@H]3[C@@H](O)[C@H](N)C[C@H](N)[C@H]3O[C@H]3O[C@H](CO)[C@@H](O)[C@H](O)[C@H]3N)O[C@@H]2CO)[C@H](N)[C@@H](O)[C@@H]1O.O=S(=O)(O)O` [PAROMOMYCIN SULFATE], for which the Hepatotoxicity result was “DILI negative (training set)”.

As for `CCCCC(=O)N(Cc1ccc(-c2ccccc2-c2nnn[nH]2)cc1)[C@H](C(=O)O)C(C)C`, the Hepatotoxicity result is “DILI negative (test set)”.

Consider `Cc1ccc(Nc2c(F)cccc2Cl)c(CC(=O)O)c1` [LUMIRACOXIB], for which the Hepatotoxicity entry is listed as “DILI positive (test set)”.

Turning to CYANOCOBALAMIN, the Hepatotoxicity entry is given as “DILI negative (training set)”.

On to `Cc1ncc([N+](=O)[O-])n1CCO` [METRONIDAZOLE], for which the Hepatotoxicity result was “DILI positive (training set)”.

Turning to `Clc1ccccc1CN1CCc2sccc2C1` [TICLOPIDINE], the Hepatotoxicity entry (Liver) is on record as “DILI positive (training set)”.

For the compound `CN1CCC(=C2c3ccccc3CC(=O)c3sccc32)CC1` [KETOTIFEN], the Hepatotoxicity result was “DILI negative (training set)”.

On to `CCCCC(=O)O` [VALERIC ACID], for which the Hepatotoxicity result was “DILI negative (test set)”.

Regarding `Clc1ccc(Cl)cc1` [1,4-DICHLOROBENZENE], the Hepatotoxicity entry is given as “DILI positive (test set)”.

For `CCc1oc2ccccc2c1C(=O)c1cc(Br)c(O)c(Br)c1` [BENZBROMARONE], the Hepatotoxicity result is reported as “DILI positive (training set)”.

As for `CNNCc1ccc(C(=O)NC(C)C)cc1.Cl` [PROCARBAZINE HYDROCHLORIDE], the Hepatotoxicity entry is “DILI positive (training set)”.

In the case of `CCOC(=O)C1(c2ccccc2)CCN(CCC(C#N)(c2ccccc2)c2ccccc2)CC1.Cl` [DIPHENOXYLATE HYDROCHLORIDE], the Hepatotoxicity result is on record as “DILI negative (test set)”.

For `O=C1CN(/N=C/c2ccc(-c3ccc([N+](=O)[O-])cc3)o2)C(=O)[N-]1.[Na+]` [DANTROLENE SODIUM], the Hepatotoxicity entry was “DILI positive (training set)”.

With `O=C(c1ccc(OCCN2CCCCC2)cc1)c1c(-c2ccc(O)cc2)sc2cc(O)ccc12` [RALOXIFENE], the Hepatotoxicity result is “DILI negative (training set)”.

`CN(C)CCN(Cc1ccccc1)c1ccccn1.Cl` [TRIPELENNAMINE HYDROCHLORIDE]: the Hepatotoxicity result was “DILI positive (test set)”.

Consider `CC(=O)OCC1=C(C(=O)[O-])N2C(=O)[C@@H](NC(=O)Cc3cccs3)[C@H]2SC1.[Na+]` [CEPHALOTHIN SODIUM], for which the Hepatotoxicity entry was “DILI positive (test set)”.

Regarding `NCCCC[C@H](N[C@@H](CCc1ccccc1)C(=O)O)C(=O)N1CCC[C@H]1C(=O)O` [LISINOPRIL ANHYDROUS], the Hepatotoxicity result is “DILI positive (training set)”.

With `CC(C)(CO)[C@@H](O)C(=O)NCCC(=O)[O-].CC(C)(CO)[C@@H](O)C(=O)NCCC(=O)[O-].[Ca+2]` [CALCIUM PANTOTHENATE], the Hepatotoxicity result is “DILI negative (training set)”.

As for `CCc1c(C)[nH]c2c1C(=O)C(CN1CCOCC1)CC2.Cl` (stereo not drawn) [MOLINDONE HYDROCHLORIDE], the Hepatotoxicity entry is “DILI positive (training set)”.

As for `CC(CCc1ccc(O)cc1)NCCc1ccc(O)c(O)c1.Cl` (stereo not drawn) [DOBUTAMINE HYDROCHLORIDE], the Hepatotoxicity result is on record as “DILI negative (training set)”.

`O=C(O)c1cc(-c2ccccc2)nc2ccccc12` [CINCHOPHEN]: the Hepatotoxicity entry is “DILI positive (test set)”.

With `CC(=O)N(O)CCCCCNC(=O)CCC(=O)N(O)CCCCCNC(=O)CCC(=O)N(O)CCCCCN.CS(=O)(=O)O` [DEFEROXAMINE MESYLATE], the Hepatotoxicity result is listed as “DILI positive (training set)”.

As for `NC(CO)(CO)CO.O=C(c1ccccc1)c1ccc2n1CCC2C(=O)O` (stereo not drawn) [KETOROLAC TROMETHAMINE], the Hepatotoxicity result is on record as “DILI positive (training set)”.

As for `CCCCN1CCCCC1C(=O)Nc1c(C)cccc1C` (stereo not drawn) [BUPIVACAINE], the Hepatotoxicity entry is listed as “DILI negative (training set)”.

Take `C=C(C)[C@H]1CC=C(C)CC1` [D-LIMONENE]: the Hepatotoxicity entry is reported as “DILI positive (test set)”.

Turning to `COC(=O)C1=C(C)NC(C)=C(C(=O)OCC(C)C)C1c1ccccc1[N+](=O)[O-]` (stereo not drawn) [NISOLDIPINE], the Hepatotoxicity entry was “DILI negative (training set)”.

Consider `CCC1(C)CC(=O)NC1=O` (stereo not drawn) [ETHOSUXIMIDE], for which the Hepatotoxicity result is “DILI positive (test set)”.

On to `N[C@@H](C(=O)N[C@@H]1C(=O)N2C(C(=O)O)=C(Cl)CC[C@H]12)c1ccccc1` [LORACARBEF ANHYDROUS], for which the Hepatotoxicity entry was “DILI negative (test set)”.

Take `CNC(=C[N+](=O)[O-])NCCSCc1ccc(CN(C)C)o1` [RANITIDINE]: the Hepatotoxicity result is recorded as “DILI negative (training set)”.

`N=C(N)NCCC[C@H](N)C(=O)O` [ARGININE]: the Hepatotoxicity result is “DILI negative (training set)”.

`CC[N+](C)(C)c1cccc(O)c1.[Cl-]` [EDROPHONIUM CHLORIDE]: the Hepatotoxicity entry was “DILI negative (training set)”.

`C[C@@H](CO)NC(=O)[C@@H]1C=C2c3cccc4[nH]cc(c34)C[C@H]2N(C)C1.O=C(O)/C=C\C(=O)O` [ERGONOVINE MALEATE]: the Hepatotoxicity entry was “DILI negative (training set)”.

`CC(N)C(O)c1ccccc1.Cl` (stereo not drawn) [PHENYLPROPANOLAMINE HYDROCHLORIDE]: the Hepatotoxicity entry is “DILI negative (training set)”.

CADMIUM DICHLORIDE: the Hepatotoxicity entry is listed as “DILI positive (training set)”.

Take `COC(=O)Nc1nc2ccc(C(=O)c3ccccc3)cc2[nH]1` [MEBENDAZOLE]: the Hepatotoxicity result was “DILI positive (training set)”.

Regarding `Clc1ccc(COC(Cn2ccnc2)c2ccc(Cl)cc2Cl)c(Cl)c1` (stereo not drawn) [MICONAZOLE], the Hepatotoxicity entry was “DILI negative (training set)”.

As for `C=C1CC[C@@]2(O)[C@H]3Cc4ccc(O)c5c4[C@@]2(CCN3CC2CC2)[C@H]1O5`, the Hepatotoxicity result is given as “DILI negative (training set)”.

Take `CCOC(=O)C1(c2ccccc2)CCN(CCc2ccc(N)cc2)CC1.Cl` [ANILERIDINE HYDROCHLORIDE]: the Hepatotoxicity result is “DILI negative (test set)”.

Consider `COCC(=O)O` [METHOXYACETIC ACID], for which the Hepatotoxicity entry is “DILI positive (test set)”.

`NCCC(O)(P(=O)(O)O)P(=O)(O)O` [PAMIDRONIC ACID]: the Hepatotoxicity entry is recorded as “DILI negative (training set)”.

With `O=C1NC(=O)C(O)(O)C(=O)N1`, the Hepatotoxicity result is given as “DILI negative (training set)”.

In the case of `OC(Cn1cncn1)(Cn1cncn1)c1ccc(F)cc1F` [FLUCONAZOLE], the Hepatotoxicity entry (Liver) is listed as “DILI positive (training set)”.

Turning to `CC(=O)[C@H]1CC[C@H]2[C@@H]3CCC4=CC(=O)CC[C@]4(C)[C@H]3CC[C@]12C` [PROGESTERONE], the Hepatotoxicity entry was “DILI positive (training set)”.

Regarding `CC(=O)[C@]1(O)Cc2c(O)c3c(c(O)c2[C@@H](O[C@H]2C[C@H](N)[C@H](O)[C@H](C)O2)C1)C(=O)c1ccccc1C3=O.Cl` [IDARUBICIN HYDROCHLORIDE], the Hepatotoxicity entry is on record as “DILI negative (training set)”.

As to `CCOC(=O)C(C)(C)Oc1ccc(Cl)cc1` [CLOFIBRATE], the Hepatotoxicity entry is “DILI positive (test set)”.

As for `COc1cc(Cc2cnc(N)nc2N)cc(OC)c1OC` [TRIMETHOPRIM], the Hepatotoxicity entry (Liver) is “DILI positive (test set)”.

In the case of `C1CCC(C(CC2CCCCN2)C2CCCCC2)CC1` (stereo not drawn) [PERHEXILINE], the Hepatotoxicity result is given as “DILI positive (training set)”.

As to `CN1CCC(=C2c3ccccc3C=Cc3ccccc32)CC1.Cl` [CYPROHEPTADINE HYDROCHLORIDE], the Hepatotoxicity entry is “DILI positive (training set)”.
